These results are taken from US4372953A, “Tetrazole derivatives, and anti-ulcer composition containing the same” (Otsuka Pharmaceutical Company, Limited, priority 1980, dated 1983).

Where two headings read alike, the source gives them in different places. A value given as a limit tells only on which side of the number the result lay.

Series [1] concerns indomethacin-induced ulcer. In words: Indomethacin-induced ulcer. The following applies: Rattus norvegicus, 5 h, oral, 30 minutes before indomethacin 20 mg/kg s.c., read-out: Inhibitory ratio of indomethacin-induced ulcer. The class given is in vivo, male Wistar rats. The procedure: After male Wistar rats weighing about 160 g was fasted for 24 hours, indomethacin was subcutaneously administered to the rats in a dose of 20 mg/kg in the form of a suspension in a mixture of 0.5% CMC and a small amount of Tween 80 (i.e. polyoxyethylene sorbitan monooleate). After 5 hours, the rats were killed and the stomach was isolated. Into the isolated stomach 10% formalin (8 ml) was poured and settled. The stomach was cut open at the greater curvature, and the length of each ulcer on the membrane was measured, based on which results the inhibitory ratio of the indomethacin-induced ulcer of the test compounds was calculated in the same manner as in Pharmacological Test 2. The test compound was orally administered to the rats in a dose of 100 mg/kg in the form of 0.5% CMC suspension 30 minutes before the administration of indomethacin.
(§1) In the table, the inhibitory ratio (%) was evaluated as follows: […]

The nature of series [2]: Acute toxicity (LD50, p.o.). The following applies: rat, in vivo; oral, male Wistar rats. On the procedure: The test compounds were orally administered to male Wistar rats, and the half lethal dose (LD50) was measured.
For the next series, the system named is gastric juice secretion. In words: Shay rat pylorus ligation method (gastric juice secretion-inhibiting activity). The class given is in vivo, male Wistar rats. The following applies: Rattus norvegicus, 4 h, 4 hours after ligation; for inhibition in vivo at 100 mg/kg: duodenal route; for inhibition in vivo at 200 mg/kg: sc, subcutaneous route. On the procedure:
The pharmacological activities of the compounds (1) were tested by a Shay rat pylorus ligation method (cf. H. Shay et al: Gastroenterol., Vol. 5, page 43, 1945) which is the most popular method for testing of gastric juice secretion-inhibiting activity. The test was carried out by using male Wistar rats, weighing about 170 g and fasting for 24 hours.
Test compounds were administered 30 minutes before the pylorus ligation in a dose of 100 mg/kg in subcutaneous route in case of test compounds 37, 38, 50, 51 and 52, in a dose of 200 mg/kg in subcutaneous route in case of test compounds 105 and 106 and in dose of 100 mg/kg in duodenal route in case of other test compounds, and the volume, total acidity and pepsin activity of the gastric juice were measured 4 hours after the ligation. As a control, a saline solution was administered instead of the test compound. The inhibitory ratio (%) of the test compounds were calculated when the inhibitory activities of the control were counted as zero (0).
as §1

For another series, the system named is stress ulcer. In words: Stress ulcer (restraint and water immersion). The series is classed as in vivo, male Wistar rats. The following applies: Rattus norvegicus, po, 7 h, read-out: Inhibitory ratio of stress ulcer; for inhibition in vivo at 300 mg/kg: 0.5% CMC suspension; for inhibition in vivo: concentration of 1×10^-3 mole. On the procedure:
After male Wistar rats weighing about 170 g was fasted for 24 hours, the rats were restrained in a stress cage and dipped in water bath at 23° C. till chest of the animals. After 7 hours, the rats were killed and the stomach was isolated. Into the isolated stomach 10% formalin (8 ml) was poured and settled. The stomach was cut open at the greater curvature, and the length of each ulcer on the membrane was measured. Sum of the length of all ulcers was shown as ulcer index (UI). The test compound was orally administered to the rats before restraint in a stress cage in a dose of 300 mg/kg in the form of 0.5% CMC suspension in case of test compounds 3, 4, 6, 15 and 27 and in a concentration of 1×10^-3 mole in case of other test compounds. As a control, only the solvent (CMC solution) was administered likewise. The inhibitory ratio (%) of stress ulcer of the test compounds was calculated by the following equation: [formula]
as §1

Where [3] appears, read: star-marked compounds, read-out: Inhibitory ratio, pepsin activity.
[4] abbreviates: star-marked compounds, read-out: Inhibitory ratio, total acidity.
The mark [5] stands for this setting: star-marked compounds, read-out: Inhibitory ratio, volume of gastric juice.
The mark [6] stands for this setting: read-out: Inhibitory ratio, pepsin activity.
Where [7] appears, read: read-out: Inhibitory ratio, total acidity.
The mark [8] stands for this setting: read-out: Inhibitory ratio, volume of gastric juice.

As for `Cc1nnc(SCCCSc2nnnn2C)o1` [compound 4], the inhibition in vivo at 100 mg/kg in series [1] was above 60%; with gastric juice secretion (setting [3]) it was 30 to 60%; in the series with gastric juice secretion (setting [4]), above 60%; in the series with gastric juice secretion (setting [5]), above 60%. Further, the LD50 in series [2] was above 500 mg/kg. Also, the inhibition in vivo at 300 mg/kg with stress ulcer is above 60%.
In the case of `CC(=O)CSc1nnnn1C` [Test compound 67], the inhibition in vivo at 100 mg/kg in series [1] was above 60%. This compound gave an LD50 in series [2] above 500 mg/kg.
Take `Cn1nnnc1SCCCSC1CCCCC1` [Test compound 3, 1-Methyl-5-(3-cyclohexylthiopropyl)thio-1,2,3,4-tetrazole]: the inhibition in vivo at 100 mg/kg in series [1] is 30 to 60%; with gastric juice secretion (setting [4]), above 60%; in the series with gastric juice secretion (setting [5]), above 60%. The inhibition in vivo at 300 mg/kg in the series on stress ulcer is above 60%.
For `CC(CSc1nnnn1C)CSc1nnnn1C` [Test compound 9, 1-Methyl-5-[2-methyl-3-(1-methyl-1,2,3,4-tetrazol-5-yl)thiopropyl]thio-1,2,3,4-tetrazole], the inhibition in vivo at 100 mg/kg in series [1] was above 60%.
Take `CCN(CC)CCCSc1nnnn1C` [Test compound 84, 1-Methyl-5-[3-(N,N-diethylamino)propyl]thio-1,2,3,4-tetrazole]: the inhibition in vivo at 100 mg/kg in series [1] is above 60%; with gastric juice secretion (setting [6]), 10 to 50%; with gastric juice secretion (setting [7]), 10 to 50%; with gastric juice secretion (setting [8]) it was 10 to 50%. Moreover, in the series on stress ulcer, the inhibition in vivo was above 60%.
Turning to `Cn1nnnc1SCCC[S+]([O-])c1ccccn1` (centres unmarked) [Test compound 44, 3-(1-Methyl-1,2,3,4-tetrazol-5-yl)thiopropyl 2-pyridyl sulfoxide], the LD50 in series [2] is above 500 mg/kg. Moreover, in the series on gastric juice secretion (setting [8]), the inhibition in vivo at 100 mg/kg is above 50%. For the same compound, the inhibition in vivo in the series on stress ulcer is above 60%.
The matching figures for `CCSCCCSc1nnnn1C` [Test compound 7, 1-Methyl-5-(3-ethylthiopropyl)thio-1,2,3,4-tetrazole]: above 500 mg/kg, above 50% and above 60%.
As to `Cn1nnnc1SCCCCCSc1nnnn1C` [Test compound 5, 1-Methyl-5-[5-(1-methyl-1,2,3,4-tetrazol-5-yl)thiopentyl]thio-1,2,3,4-tetrazole], the inhibition in vivo at 100 mg/kg was above 60% in series [1], 30 to 60% in the series on gastric juice secretion (setting [3]), above 60% in the series with gastric juice secretion (setting [4]) and above 60% in the series with gastric juice secretion (setting [5]). Moreover, the inhibition in vivo with stress ulcer was above 60%.
`CCN(CC)C(=O)CCCn1nnnc1C` [Test compound 105, N,N-Diethyl-4-(5-methyl-1,2,3,4-tetrazol-1-yl)butyramide]: the inhibition in vivo at 100 mg/kg in series [1] was 30 to 60%. The same compound gave an LD50 in series [2] above 500 mg/kg. Besides, the inhibition in vivo at 200 mg/kg with gastric juice secretion (setting [6]), with gastric juice secretion (setting [7]) and in the series on gastric juice secretion (setting [8]) was 10 to 50% in each case. The inhibition in vivo with stress ulcer is above 60%.
Regarding `Cn1nnnc1SCCCC(=O)c1ccccc1` [Test compound 53, 1-Methyl-5-(3-benzoylpropyl)thio-1,2,3,4-tetrazole], in series [1], the inhibition in vivo at 100 mg/kg was above 60%.
`CCN(C(=O)CCCn1nnnc1C)C1CCCCC1` [Test compound 106, N-Ethyl-N-cyclohexyl-4-(5-methyl-1,2,3,4-tetrazol-1-yl)butyramide]: in series [1], the inhibition in vivo at 100 mg/kg is 30 to 60%. Further, the LD50 in series [2] is above 500 mg/kg. The inhibition in vivo at 200 mg/kg in the series on gastric juice secretion (setting [6]), in the series with gastric juice secretion (setting [7]) and with gastric juice secretion (setting [8]) was 10 to 50% each time.
